# Assay results from ChEMBL document CHEMBL1153371, “Antiseizure activity of novel gamma-aminobutyric acid (A) receptor subtype-selective benzodiazepine analogues in mice and rat models” (J Med Chem, 2009).
# Activity calls are given as the source filed them. The rule behind the calls is not given here.
# Legend:
# [1] = biological target: GABA-A receptor; alpha-1/beta-3/gamma-2 (Homo sapiens) (UniProt P14867+P18507+P28472); assay: Activity at GABAA alpha-1-beta-3-gamma-2 receptor expressed in oocytes assessed as stimulation of GABA-induced current at 1 uM relative to control; format: cell-based; conditions: Oocyte
# [2] = biological target: GABA-A receptor; alpha-2/beta-3/gamma-2 (Homo sapiens) (UniProt P18507+P28472+P47869); assay: Activity at GABAA alpha-2-beta-3-gamma-2 receptor expressed in oocytes assessed as stimulation of GABA-induced current at 1 uM relative to control; format: cell-based; conditions: Oocyte
# [3] = biological target: T1, Gamma-aminobutyric acid receptor subunit alpha-3 (Homo sapiens) (UniProt P34903); assay: Activity at GABAA alpha-3-beta-3-gamma-2 receptor expressed in oocytes assessed as stimulation of GABA-induced current at 1 uM relative to control; format: cell-based; conditions: Oocyte
# T1 sequence (whole entry): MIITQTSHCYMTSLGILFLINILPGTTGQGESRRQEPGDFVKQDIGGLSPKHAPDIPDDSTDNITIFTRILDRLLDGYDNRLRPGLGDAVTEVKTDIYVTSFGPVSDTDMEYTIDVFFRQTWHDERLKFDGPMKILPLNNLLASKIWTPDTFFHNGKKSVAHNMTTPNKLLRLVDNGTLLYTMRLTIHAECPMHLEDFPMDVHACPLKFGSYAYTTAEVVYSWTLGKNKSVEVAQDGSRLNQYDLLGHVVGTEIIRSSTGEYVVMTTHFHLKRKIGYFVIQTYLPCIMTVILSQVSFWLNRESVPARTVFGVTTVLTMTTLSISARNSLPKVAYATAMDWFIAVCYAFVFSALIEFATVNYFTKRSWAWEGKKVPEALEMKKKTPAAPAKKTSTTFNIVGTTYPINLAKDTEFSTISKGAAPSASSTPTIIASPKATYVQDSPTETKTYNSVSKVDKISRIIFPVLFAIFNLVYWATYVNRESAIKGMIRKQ
# [4] = biological target: GABA-A receptor; alpha-5/beta-3/gamma-2 (Homo sapiens) (UniProt P18507+P28472+P31644); assay: Activity at GABAA alpha-5-beta-3-gamma-2 receptor expressed in oocytes assessed as stimulation of GABA-induced current at 1 uM relative to control; format: cell-based; conditions: Oocyte
# [5] = system: Mus musculus; assay: Anticonvulsant activity in ip dosed mouse assessed as protection against maximal electroshock-induced seizure; format: functional
# [6] = system: Mus musculus; assay: Anticonvulsant activity in ip dosed mouse assessed as protection against subcutaneous metrazole-induced seizure; format: functional
# [7] = Toxicity in ip dosed mouse assessed as minimal muscular or neurological impairment by rotarod paradigm test; format: organism-based; conditions: in vivo
# [8] = system: Rattus norvegicus; assay: Anticonvulsant activity in po dosed rat assessed as protection against maximal electroshock-induced seizure; format: functional
# [9] = system: Rattus norvegicus; assay: Anticonvulsant activity in po dosed rat assessed as protection against subcutaneous metrazole-induced seizure; format: functional
# [10] = Toxicity in po dosed rat assessed as minimal muscular or neurological impairment by rotarod paradigm test; format: organism-based; conditions: in vivo
# [11] = Therapeutic index, ratio of TD50 for ip dosed mouse to ED50 for protection against subcutaneous metrazole-induced seizure in ip dosed mouse; format: organism-based; conditions: in vivo, read-out: Ratio TD50/ED50
# [12] = Therapeutic index, ratio of TD50 for po dosed rat to ED50 for protection against subcutaneous metrazole-induced seizure in po dosed rat; format: organism-based; conditions: in vivo, read-out: Ratio TD50/ED50
# [13] = system: Rattus norvegicus; assay: Anticonvulsant activity in rat assessed as protection against maximal electroshock-induced seizure at 30 mg/kg, ip and po after 0.5 hrs; format: functional, organism-based; parameters: dose 30 mg/kg
# [14] = system: Rattus norvegicus; assay: Anticonvulsant activity in rat assessed as protection against maximal electroshock-induced seizure at 30 mg/kg, ip and po after 4 hrs; format: functional, organism-based; parameters: dose 30 mg/kg
# [15] = system: Rattus norvegicus; assay: Anticonvulsant activity in rat assessed as protection against subcutaneous metrazole-induced seizure at 50 mg/kg, po after 0.5 hrs; format: functional
# [16] = system: Rattus norvegicus; assay: Toxicity in rat assessed as motor impairment at 50 mg/kg, po after 0.5 hrs by rotarod paradigm test; format: organism-based; parameters: dose 50 mg/kg, route oral; conditions: in vivo
# [17] = system: Rattus norvegicus; assay: Toxicity in rat assessed as motor impairment at 50 mg/kg, po after 4 hrs by rotarod paradigm test; format: organism-based; parameters: dose 50 mg/kg, route oral; conditions: in vivo
# [18] = system: Rattus norvegicus; assay: Anticonvulsant activity in rat assessed as protection against subcutaneous metrazole-induced seizure at 15 mg/kg, po after 4 hrs; format: functional
# [19] = system: Rattus norvegicus; assay: Anticonvulsant activity in rat assessed as blockade against kindle motor-induced seizure at 10 mg/kg, ip by hippocampal kindling screen test; format: functional, organism-based; parameters: dose 10 mg/kg; conditions: Hippocampus
# [20] = system: Rattus norvegicus; assay: Anticonvulsant activity against kindle motor-induced seizure in rat assessed as after discharge duration at 10 mg/kg, ip by hippocampal kindling screen test; format: functional, Hippocampus; conditions: route intraperitoneal
# [21] = system: Rattus norvegicus; assay: Toxicity in rat assessed as motor impairment at 3 mg/kg, ip after 1 hr by rotarod paradigm test; format: organism-based; parameters: dose 3 mg/kg, route intraperitoneal; conditions: in vivo
# [22] = system: Rattus norvegicus; assay: Toxicity in rat assessed as motor impairment at 50 mg/kg, po after 1 hr by rotarod paradigm test; format: organism-based; parameters: dose 50 mg/kg, route oral; conditions: in vivo
# [23] = system: Rattus norvegicus; assay: Anticonvulsant activity in rat assessed as protection against subcutaneous metrazole-induced seizure at 50 mg/kg, ip after 0.5 hrs; format: functional
# [24] = system: Rattus norvegicus; assay: Anticonvulsant activity in rat assessed as protection against subcutaneous metrazole-induced seizure at 50 mg/kg, ip after 4 hrs; format: functional
# [25] = system: Rattus norvegicus; assay: Toxicity in rat assessed as motor impairment at 50 mg/kg, ip after 0.5 hrs by rotarod paradigm test; format: organism-based; parameters: dose 50 mg/kg, route intraperitoneal; conditions: in vivo
# [26] = system: Rattus norvegicus; assay: Toxicity in rat assessed as motor impairment at 50 mg/kg, ip after 4 hrs by rotarod paradigm test; format: organism-based; parameters: dose 50 mg/kg, route intraperitoneal; conditions: in vivo
# [27] = system: Rattus norvegicus; assay: Anticonvulsant activity in rat assessed as protection against subcutaneous metrazole-induced seizure at 50 mg/kg, po after 4 hrs; format: functional, organism-based; parameters: dose 50 mg/kg
# [28] = system: Rattus norvegicus; assay: Anticonvulsant activity in rat assessed as blockade against kindle motor-induced seizure at 50 mg/kg, ip by hippocampal kindling screen test; format: functional, organism-based; parameters: dose 50 mg/kg; conditions: Hippocampus
# [29] = system: Rattus norvegicus; assay: Anticonvulsant activity against kindle motor-induced seizure in rat assessed as after discharge duration at 50 mg/kg, ip by hippocampal kindling screen test; format: functional, Hippocampus; conditions: route intraperitoneal
# [30] = system: Rattus norvegicus; assay: Toxicity in rat assessed as motor impairment at 30 mg/kg, ip after 1 hr by rotarod paradigm test; format: organism-based; parameters: dose 30 mg/kg, route intraperitoneal; conditions: in vivo
# [31] = system: Mus musculus; assay: Anticonvulsant activity in mouse assessed as protection against maximal electroshock-induced seizure at 100 mg/kg, ip after 0.5 hrs; format: functional, organism-based; parameters: dose 100 mg/kg
# [32] = system: Mus musculus; assay: Anticonvulsant activity in mouse assessed as protection against maximal electroshock-induced seizure at 100 mg/kg, ip after 4 hrs; format: functional, organism-based; parameters: dose 100 mg/kg
# [33] = system: Mus musculus; assay: Anticonvulsant activity in mouse assessed as protection against subcutaneous metrazole-induced seizure at 100 mg/kg, ip after 4 hrs; format: functional, organism-based; parameters: dose 100 mg/kg
# [34] = system: Mus musculus; assay: Toxicity in mouse assessed as motor impairment at 100 mg/kg, ip after 0.5 hrs by rotarod paradigm test; format: organism-based; parameters: dose 100 mg/kg, route intraperitoneal; conditions: in vivo
# [35] = system: Mus musculus; assay: Toxicity in mouse assessed as motor impairment at 100 mg/kg, ip after 4 hrs by rotarod paradigm test; format: organism-based; parameters: dose 100 mg/kg, route intraperitoneal; conditions: in vivo
# [36] = system: Rattus norvegicus; assay: Toxicity in rat assessed as motor impairment at 50 mg/kg, ip after 1 hr by rotarod paradigm test; format: organism-based; parameters: dose 50 mg/kg, route intraperitoneal; conditions: in vivo
# [37] = system: Rattus norvegicus; assay: Toxicity in rat assessed as sedative effect at 500 mg/kg, po; format: organism-based; parameters: dose 500 mg/kg, route oral; conditions: in vivo
# [38] = system: Rattus norvegicus; assay: Anticonvulsant activity in rat assessed as blockade against kindle motor-induced seizure at 100 mg/kg, ip by hippocampal kindling screen test; format: functional, organism-based; parameters: dose 100 mg/kg; conditions: Hippocampus
# [39] = system: Rattus norvegicus; assay: Anticonvulsant activity against kindle motor-induced seizure in rat assessed as after discharge duration at 100 mg/kg, ip by hippocampal kindling screen test; format: functional, Hippocampus; conditions: route intraperitoneal
SMILES,Activity [1] [%],Activity [2] [%],Activity [3] [%],Activity [4] [%],ED50 [5] [mg/kg],ED50 [6] [mg/kg],TD50 [7] [mg/kg],ED50 [8] [mg/kg],ED50 [9] [mg/kg],TD50 [10] [mg/kg],selectivity ratio [11],selectivity ratio [12],Activity [25],further results
CN1C(=O)CN=C(c2ccccc2)c2cc(Cl)ccc21,345,508,776,420,–,–,–,–,–,–,–,–,–,–
O=C1CN=C(c2ccccc2Cl)c2cc([N+](=O)[O-])ccc2N1 [CLONAZEPAM],–,–,–,–,25.6,0.02,0.26,7.86,0.61,2.38,13,3.9,–,–
C#Cc1ccc2c(c1)C(c1ccccc1Cl)=NCc1nnc(C)n1-2,–,–,–,–,> 6,1.03,–,> 150,1.58,–,2.8,> 105,–,Activity [13]: inactive; Activity [14]: inactive; Activity [15]: Active; Activity [16]: Non-toxic; Activity [17]: Non-toxic; Activity [18]: 50%; Activity [19]: Active; Activity [20]: 92 s; Activity [21]: Non-toxic
CCOC(=O)c1ncn2c1CN=C(c1ccccc1F)c1cc(I)ccc1-2,–,–,–,–,–,–,–,–,–,–,–,–,Non-toxic,Activity [16]: Non-toxic; Activity [22]: Non-toxic; Activity [23]: inactive; Activity [24]: inactive; Activity [26]: Non-toxic
C#Cc1ccc2c(c1)C(c1ccccc1F)=NCc1c(C(=O)OCC)ncn1-2,248,410,596,246,> 200,8.87,> 400,> 250,23.7,> 500,> 44,> 21.1,Non-toxic,Activity [13]: inactive; Activity [27]: Active; Activity [26]: Non-toxic; Activity [28]: Active; Activity [29]: 38 s; Activity [30]: Non-toxic
O=C1NC(=O)C(c2ccccc2)(c2ccccc2)N1 [PHENYTOIN],–,–,–,–,5.64,> 50,–,28.1,> 500,> 1000,< 0.82,2,–,–
C#Cc1ccc2c(c1)C(c1ccccn1)=NCc1c(C(=O)OCC)ncn1-2,167,313,346,174,> 300,16.3,> 500,> 250,98.5,> 500,> 30.2,> 5,Non-toxic,Activity [31]: inactive; Activity [32]: inactive; Activity [33]: inactive; Activity [34]: Non-toxic; Activity [35]: Non-toxic; Activity [14]: inactive; Activity [15]: 100%; Activity [23]: 88%; Activity [24]: 63%; Activity [36]: Non-toxic; Activity [37]: Non-toxic; Activity [38]: Active; Activity [39]: 59 s; Activity [30]: Non-toxic
NC(=O)N1c2ccccc2C=Cc2ccccc21 [CARBAMAZEPINE],–,–,–,–,7.81,> 50,–,5.35,> 250,–,–,–,–,–
